# Legend:
# SUDHL-6 cells = assay: Free fatty acid cell survival test with or without IKE (CellTiter-Glo); type: cell-based; conditions: for toxicity of free fatty acid to cells: 100 μM, 24 hours; for effect of free fatty acid on IKE-induced ferroptosis: 10 μM fatty acid with IKE
# From the text: Relative Area Under Curve (AUC) to DMSO cotreatment was used to indicate the sensitization or protection effect of free fatty acids to IKE-induced ferroptosis.
# [1] = Erastin and IKE solubility measurements (nephelometry); type: physicochemical
# Procedure: Solubility measurement samples were prepared in a 96-well Corning Costar plate with two at 1% and 5% DMSO v/v with a total sample volume of 200 μL in MilliQ water. A BMG Labtech NEPHELOstar nephelometer was used to measure turbidity of the samples with the following parameters per the instrument manufacturer: Gain=80, Laser Focus=2.50 mm, and Laser Intensity=90%. Samples were shaken in the nephelometer by orbital shaking for 3 s prior to the turbidity measurement. Sample values were blanked in the instrument software using the corresponding water and DMSO condition values. Turbidity 4000 NTU Calibration Standard-Formazin (Millipore-Sigma) was used as a positive control for all turbidity measurements. The turbidity of each sample was measured within 20 minutes of initial preparation. After the initial measurement, the sample plates were covered with aluminum sealing film and allowed to sit overnight at room temperature prior to re-measuring.
# SUDHL 6 cells = assay: Measurement of IKE PEG-PLGA cellular activity (CellTiter-Glo, 24 h); type: cell-based; conditions: fer-1 co-treatment
# Procedure: DLBCL cells or HT-1080 cells were plated at 2,000 cells per well in white 384-well plates (32 μL per well) in technical duplicates and incubated overnight. The cells were then treated with 8 μL medium containing a two-fold dilution series of vehicle 1 (DMSO), IKE, Fer-1, vehicle 2 (unfunctional PEG-PLGA nanoparticles), or IKE PEG-PLGA nanoparticles. The final concentration of IKE in PEG-PLGA nanoparticles were measured by LC-MS as described in the sections below. After 24 h incubation with compounds, 40 μL of 50% CellTiter-Glo (Promega) 50% cell culture medium was added to each well and incubated at room temperature with shaking for 15 min. Luminescence was measured using a Victor X5 plate reader (PerkinElmer). All cell viability data were normalized to the DMSO vehicle condition. Experiments were performed in three independent times with different passages for each cell line.
# SUDHL6 cells [2] = assay: C-11 BODIPY lipid peroxidation measurement (flow cytometry); type: cell-based; conditions: 10 μM fer-1 co-treatment
# Procedure: 0.20 million SUDHL-6 cells were seeded in sixc^− well plates and treated with DMSO, IKE, or Fer-1 at specific concentration. The final cell density of 0.05 million cells/mL. After 24 h, cells were harvested by centrifuging at 300×g for 5 min. Cells were resuspended in 500 μL HBSS containing 2 μM C11-BODIPY (BODIPY 581/591 C11) (Thermo Fisher Scientific, D3861) and incubated at 37° C. for 15 min. Cells were pelleted and resuspended in HBSS. Fluorescence intensity was measured on the FL1 channel with gating to record live cells only (gate constructed from DMSO treatment group). A minimum of 10,000 cells were analyzed per condition.
# SUDHL6 cells [3] = assay: qPCR analysis of gene expression in cell culture; type: cell-based; conditions: SUDHL6 cells
# Procedure: To perform qPCR analysis in cell culture, DLBCL cells were treated with 0-10 μM IKE, Fer-1, or β-Me for the indicated times. RNA was extracted using the Qiashredder and Qiagen RNeasy Mini kits (Qiagen) according to the manufacture's protocol. 2 μg RNA from each sample was reversed transcribed to cDNA using a High Capacity cDNA Reverse Transcription Kit (Thermo Fisher Scientific, 4368814). Quantitative PCR reactions were performed using Power SYBR Green PCR Master Mix (Applied Biosystems) with triplicate measurement on ViiA 7 Real-Time PCR instrument (Thermo Fischer). HPRT1 was used as an internal reference. Differences in mRNA levels compared with HPRT1 were computed between vehicle and experimental groups using the ΔΔCt method. The primers used in the study were listed below.
# DLBCL cell lines = assay: Fer-1 co-treatment rescue of IKE-induced cell death (CellTiter-Glo); type: cell-based; conditions: co-treatment with IKE, 24 hours
# Procedure: The cell viability was measured by co-treating cells with a two-fold series dilution of IKE (starting from 100 μM) and two-fold series dilution of Fer-1 (starting from 200 μM) for 24 hours followed by a Cell Titor-Glo luminescent cell viability test. […] Data are plotted as the mean±s.d., n=2 biologically replicates. Three independent experiments were performed with similar results.
# DLBCL cells were plated at 10,000 cells per well in white 384-well plates (32 μL per well) in technical duplicates and incubated overnight. The cells were then treated with 8 μL medium containing a two-fold dilution series of vehicle (DMSO), IKE (starting from 100 μM) with or without Fer-1 (starting from 200 μM). After 24 h incubation, 40 μL of 50% CellTiter-Glo (Promega) 50% cell culture medium was added to each well and incubated at room temperature with shaking for 15 min. Luminescence was measured using a Victor X5 plate reader (PerkinElmer). All cell viability data were normalized to the DMSO vehicle condition. Experiments were performed three independent times with different passages for each cell line.
# GSH = conditions: Narang et al., 2007; Lo et al., 2010; cited from earlier work
# SUDHL6 cells [4] = assay: Reduced glutathione measurement in cell culture (Fluorometric-Green); type: cell-based; conditions: 10 μM β-ME co-treatment, 24 h
# Procedure: 2.4 million cells were incubated with DMSO, IKE, or β-mercaptoethanol (β-Me) at a density of 0.2 million cells/mL for 24 h. Cells were collected and washed with cold PBS once. Cell number was counted by Vi-Cell. Cells were resuspended in ice cold RIPA buffer (Thermo Fisher Scientific, 89900) with 100 μL/one million cells. Samples were centrifuged for 15 min at 4° C. at 17,000×g. The resulting supernatant was deproteinized using a trichloroacetic acid and sodium bicarbonate solution and kept on ice. The sample was diluted with assay buffer provided in GSH/GSSG Ratio Detection Assay Kit (Abcam, ab13881) ten-fold. Reduced glutathione (GSH) levels were determined using Fluorometric-Green provided in the kit following the manufacture's protocol. 384-well (Corning) low volume black flat bottom polystyrene non-treated microplates 1230F99 were used in this experiment.
smiles,measurement,setting,value
CCCCC/C=C\C/C=C\C/C=C\C/C=C\CCCC(=O)O [arachidonic acid],toxicity of free fatty acid to cells,SUDHL-6 cells,toxic to cells
"CCOc1ccccc1-n1c(C(C)N2CCN(C(=O)COc3ccc(Cl)cc3)CC2)nc2ccccc2c1=O (stereo not shown) [erastin, reference compound]",water solubility (in words),[1],low water solubility
"CCOC(=O)c1ccc(NC2CCCCC2)c(N)c1 [fer-1, ferrostatin-1, reference compound]",effect of co-treatment on cell death induced by IKE and IKE PEG-PLGA NPs,SUDHL 6 cells,rescued cell death
same,effect of co-treatment on IKE-induced lipid ROS signal (C11-BODIPY),SUDHL6 cells [2],inhibited this signal
same,effect of co-treatment on IKE-induced PTGS2 upregulation,SUDHL6 cells [3]; 10 μM Fer-1 with 500 nM IKE for 6 hours,prevented
same,effect of co-treatment on IKE-induced CHAC1 upregulation,SUDHL6 cells [3]; Fer-1 co-treatment,did not inhibit
same,effect of co-treatment on cell death induced by IKE,DLBCL cell lines,rescued cell death
CCCCCCCC/C=C\CCCCCCCC(=O)O [oleic acid],effect of free fatty acid on IKE-induced ferroptosis,SUDHL-6 cells,protected against ferroptosis
CCCCCC/C=C\CCCCCCCC(=O)O [palmitoleic acid],effect of free fatty acid on IKE-induced ferroptosis,SUDHL-6 cells,protected against ferroptosis
O=C(O)c1cc(/N=N/c2ccc(S(=O)(=O)Nc3ccccn3)cc2)ccc1O [sulfasalazine],IC50 for GSH depletion,GSH,millimolar range
"OCCS [β-ME, β-mercaptoethanol, reference compound]",effect of co-treatment on GSH depletion by IKE,SUDHL6 cells [4],reversed
same,"effect of co-treatment on IKE-induced upregulation of SLC7A11, CHAC1 and PTGS2 mRNAs",SUDHL6 cells [3]; 10 μM β-Me with 500 nM IKE for 6 hours,prevented
CCCCC/C=C\C/C=C\C/C=C\CCCCC(=O)O [γ-linolenic acid],toxicity of free fatty acid to cells,SUDHL-6 cells,toxic to cells

# Source: patent publication US20210267978A1, “NANOPARTICLE FORMULATIONS OF IKE AND METHODS OF USE THEREOF” (The Trustees of Columbia University in the City of New York, priority 2018, published 2021)
